# Like-named read-outs stand apart in the source and are kept apart here.
# Legend:
# MM.1S cells [1] = experiment: Anti-proliferation assay (ATPLite, 72 h), MM.1S; conditions: for IC50: 2-fold dilutions
# MM.1S cells [2] = tested on: MM.1S cells
# [3] = tested on: GA-10 (Burkitt's lymphoma) cells; experiment: Anti-proliferation assay (ATPLite, 72 h), GA-10; assay type: cell-based; conditions: x dexamethasone
# H929 cells = experiment: Anti-proliferation assay (ATPLite, 72 h), H929; assay type: cell-based
# [4] = tested on: Farage (non-Hodgkin's B cell lymphoma) cells; experiment: Anti-proliferation assay (ATPLite, 72 h), Farage; assay type: cell-based; conditions: x dexamethasone
# RPMI-8226 cells = experiment: Anti-proliferation assay (ATPLite, 72 h), RPMI-8226; assay type: cell-based
# Karpas 422 DLBCL cells = experiment: Anti-proliferation assay (ATPLite, 72 h), Karpas 422; assay type: cell-based; conditions: in combination with CGS-21680
# SU-DHL6 DLBCL cells = experiment: Anti-proliferation assay (ATPLite, 72 h), SU-DHL6; assay type: cell-based; conditions: in combination with CGS-21680
# OCI-ly10 DLBCL cells = experiment: Anti-proliferation assay (ATPLite, 72 h), OCI-ly10; assay type: cell-based; conditions: in combination with CGS-21680
smiles,measurement,setting,value
"OC[C@H]1O[C@H](n2cnc3c(NC4CC5CCC4C5)ncnc32)[C@H](O)[C@@H]1O (stereo partly drawn) [(S)-ENBA, S-N^6-(2-endo-norbornyl)adenosine]","Synergy score with dexamethasone, MM.1S",MM.1S cells [1],7.30
same,percent inhibition of cell proliferation,MM.1S cells [1]; (S)-ENBA 0.173 μM alone,14%
same,percent inhibition of cell proliferation,MM.1S cells [1]; (S)-ENBA 0.519 μM alone,14%
same,percent inhibition of cell proliferation,MM.1S cells [1]; (S)-ENBA 1.56 μM alone,50%
same,percent inhibition of cell proliferation,MM.1S cells [1]; (S)-ENBA 4.67 μM alone,49%
same,percent inhibition of cell proliferation,MM.1S cells [1]; (S)-ENBA 14 μM alone,62%
same,activity and synergy in antiproliferation assays,"MM.1S cells [1]; RPMI-8226, H929, MM.1S and MM.1R MM cell lines",active and synergistic
same,IC50,"MM.1S cells [1]; read-out: IC50 (+IL-6), MM.1S cells grown in presence of 10 ng/ml IL-6",1530 nM
same,IC50,"MM.1S cells [1]; read-out: IC50 (no IL-6), MM.1S cells grown in absence of IL-6",2270 nM
same,Percent inhibition of cell growth by (S)-ENBA,"MM.1S cells [2]; (s)-ENBA 0.17 μM, 78 nM SCH58261",4.5%
same,Percent inhibition of cell growth by (S)-ENBA,"MM.1S cells [2]; (s)-ENBA 0.17 μM, 175 nM MRS1754",9.3%
same,Percent inhibition of cell growth by (S)-ENBA,"MM.1S cells [2]; (s)-ENBA 0.17 μM, 178 nM DPCPX",2.4%
same,Percent inhibition of cell growth by (S)-ENBA,"MM.1S cells [2]; (s)-ENBA 0.17 μM, 183 nM MRS1523",10%
same,Percent inhibition of cell growth by (S)-ENBA,"MM.1S cells [2]; (s)-ENBA 0.17 μM, no antagonist",6%
same,Percent inhibition of cell growth by (S)-ENBA,"MM.1S cells [2]; (s)-ENBA 0.52 μM, 78 nM SCH58261",6%
same,Percent inhibition of cell growth by (S)-ENBA,"MM.1S cells [2]; (s)-ENBA 0.52 μM, 175 nM MRS1754",10%
same,Percent inhibition of cell growth by (S)-ENBA,"MM.1S cells [2]; (s)-ENBA 0.52 μM, 178 nM DPCPX",18%
same,Percent inhibition of cell growth by (S)-ENBA,"MM.1S cells [2]; (s)-ENBA 0.52 μM, 183 nM MRS1523",14%
same,Percent inhibition of cell growth by (S)-ENBA,"MM.1S cells [2]; (s)-ENBA 0.52 μM, no antagonist",19%
same,Percent inhibition of cell growth by (S)-ENBA,"MM.1S cells [2]; (s)-ENBA 1.6 μM, 78 nM SCH58261",14%
same,Percent inhibition of cell growth by (S)-ENBA,"MM.1S cells [2]; (s)-ENBA 1.6 μM, 175 nM MRS1754",50%
same,Percent inhibition of cell growth by (S)-ENBA,"MM.1S cells [2]; (s)-ENBA 1.6 μM, 178 nM DPCPX",37%
same,Percent inhibition of cell growth by (S)-ENBA,"MM.1S cells [2]; (s)-ENBA 1.6 μM, 183 nM MRS1523",36%
same,Percent inhibition of cell growth by (S)-ENBA,"MM.1S cells [2]; (s)-ENBA 1.6 μM, no antagonist",41%
same,Percent inhibition of cell growth by (S)-ENBA,"MM.1S cells [2]; (s)-ENBA 4.7 μM, 78 nM SCH58261",12%
same,Percent inhibition of cell growth by (S)-ENBA,"MM.1S cells [2]; (s)-ENBA 4.7 μM, 175 nM MRS1754",47%
same,Percent inhibition of cell growth by (S)-ENBA,"MM.1S cells [2]; (s)-ENBA 4.7 μM, 178 nM DPCPX",77%
same,Percent inhibition of cell growth by (S)-ENBA,"MM.1S cells [2]; (s)-ENBA 4.7 μM, 183 nM MRS1523",52%
same,Percent inhibition of cell growth by (S)-ENBA,"MM.1S cells [2]; (s)-ENBA 4.7 μM, no antagonist",52%
same,Percent inhibition of cell growth by (S)-ENBA,"MM.1S cells [2]; (s)-ENBA 14 μM, 78 nM SCH58261",45%
same,Percent inhibition of cell growth by (S)-ENBA,"MM.1S cells [2]; (s)-ENBA 14 μM, 175 nM MRS1754",71%
same,Percent inhibition of cell growth by (S)-ENBA,"MM.1S cells [2]; (s)-ENBA 14 μM, 178 nM DPCPX",89%
same,Percent inhibition of cell growth by (S)-ENBA,"MM.1S cells [2]; (s)-ENBA 14 μM, 183 nM MRS1523",65%
same,Percent inhibition of cell growth by (S)-ENBA,"MM.1S cells [2]; (s)-ENBA 14 μM, no antagonist",68%
same,synergy score,[3],1.05
same,"Synergy score with dexamethasone, H929",H929 cells,7.82
same,synergy score,[4],1.37
same,"Synergy score with dexamethasone, RPMI-8226",RPMI-8226 cells,8.64
Cn1c2ccccc2c2c3c(c4c5ccccc5n(CCC#N)c4c21)CNC3=O [Go 6976],synergy score,Karpas 422 DLBCL cells,2.91
same,synergy score,SU-DHL6 DLBCL cells,3.69
same,synergy score,OCI-ly10 DLBCL cells,1.61

# From US20090053168A1, “TREATMENTS OF B-CELL PROLIFERATIVE DISORDERS” (priority 2007, published 2009)
